Patent US4791215A, “Derivatives of glutamic acid and aspartic acid” (priority 1984, dated 1988)

Legend:
[1] = system: CCK-8 induced contraction of guinea pig gall bladder; test: Anti-CCK activity on gall bladder strips in vitro; settings: CCK-8 10 ng/ml
Procedure: ANTI-CCK ACTIVITY ON GUINEA PIG GALL BALDDERS IN VITRO
A longitudinal strip of guinea pig gall bladder was placed in a bath of isolated members in the presence of Krebs at a temperature of 32° C. with continuous oxygenation with an oxygen-CO2 mixture (95-5V/V).
The isometric contractions were detected by means of a force transducer and recorded.
The gall bladder was made to contract with the use of a 10 ng/ml concentration of CCK-8; the antagonistic activity of the compounds of the invention on the contracting effect of the CCK was determined with the use of different concentrations and the ED 50 value, that is the concentration in μg/ml of a compound which could antagonise 50% of the contracting effect of the CCK, was determined.

[2] = system: morphine analgesia; test: Increase in analgesia of morphine, Tail Flick Test (Experiment 1); format: in vivo, rats; settings: for percentage variation of latency of pain sensation / M (10-90) ± SE, mean percentage variation of latency: compound 10 mg/kg i.p. + morphine 2 mg/kg; for M (10-90) ± SE, mean percentage variation of latency: mean 10-90 min; for Power ratio with respect to morphine alone: rat, in vivo
Procedure: Experiment No: 1 Increase in analgesia of analgesic-narcotic drugs in rats by the Tail Flick Test
The method is that described by Harris et al. (J. Pharmacol. Exp. Ther. 143 (1964) 141-148).
Male rats are used having a weight of about 150-200 g which have not fasted. A point on the tail is chosen and irradiated by a heat source (75° C.) and the time (in seconds) for which the animal remains without moving its tail is measured.
A maximum period of time of 8 seconds under the heat source is chosen, after which the animal is, in any case, removed to avoid tissue damage. The measurement is effected before (controls) and after treatment with the drugs.
The percentage variation is calculated for each individual animal by the following formula: [formula] The measurements were carried out 10, 20, 30, 45, 60 and 90 minutes after treatment with the analgesics.

Structure (SMILES)	ED50 (concentration antagonising 50% of contracting effect of CCK-8) [1]	percentage variation of latency of pain sensation ([2]; 10')	percentage variation of latency of pain sensation ([2]; 20')	percentage variation of latency of pain sensation ([2]; 30')	percentage variation of latency of pain sensation ([2]; 45')	percentage variation of latency of pain sensation ([2]; 60')	percentage variation of latency of pain sensation ([2]; 90')	M (10-90) ± SE, mean percentage variation of latency [2]	Power ratio with respect to morphine alone [2]
CCCCNC(=O)C(CCC(=O)O)NC(=O)c1ccc(C)c(C)c1 (stereo not drawn) [Compound C-42]	50.1 µg/mL	49.0 ± 31%	65.9 ± 24%	80.1 ± 9%	59.1 ± 20%	33.5 ± 20%	61.4 ± 12%	58.2 ± 16%	1.95
CN(C)C(=O)CCC(NC(=O)c1ccc(Cl)c(Cl)c1)C(=O)O [Compound D-1]	> 200 µg/mL	75.0 ± 16.0%	100.0 ± 0.0%	100.0 ± 0.0%	86.4 ± 14.0%	100.0 ± 0.0%	51.0 ± 21.0%	85.4 ± 19.7%	2.86
CCc1ccc(C(=O)NC(CCC(=O)O)C(=O)NC2CCCCC2)cc1 (stereo not drawn) [Compound C-48]	119.1 µg/mL	42.1 ± 14%	59.5 ± 8%	50.1 ± 21%	78.4%	43.7 ± 30%	44.9 ± 18%	53.1 ± 14%	1.78
CCCCN(CCCC)C(=O)C(CCC(=O)O)NC(=O)c1cccc(C#N)c1 (stereo not drawn) [Compound C-24]	> 200 µg/mL	80.3 ± 13.6%	87.2%	96.9 ± 3.0%	100.0 ± 0.0%	74.0 ± 16.0%	75.3 ± 14.0%	85.6 ± 11.0%	2.87
CCCCN(CCCC)C(=O)C(CCC(=O)O)NC(=O)c1ccc(C)c(C)c1 (stereo not drawn) [Compound C-54]	1.2 µg/mL	77.0 ± 10%	89.1 ± 11%	100 ± 0%	99.2 ± 0.8%	69.6 ± 16%	63.2 ± 19%	83.0 ± 15%	2.78
CCCN(CCC)C(=O)C(CCC(=O)O)NC(=O)c1ccc(I)cc1 (stereo not drawn) [Compound C-18]	60.3 µg/mL	48.9 ± 31.0%	65.9 ± 24.0%	80.1 ± 9.0%	59.1 ± 20.0%	33.5 ± 20.0%	81.4 ± 12.0%	58.1%	1.95
CCCN(CCC)C(=O)C(CCC(=O)O)NC(=O)c1ccc(F)cc1 (stereo not drawn) [Compound C-12]	64.7 µg/mL	54.4 ± 16.7%	76.3%	61.6 ± 16.0%	63.9 ± 20.0%	65.2 ± 17.0%	11.6 ± 14.0%	55.5%	1.86
